Converted amounts (≈) assume the structure as drawn. Like-named read-outs stand apart in the source and are kept apart here.
Experiments:
[1] = tested on: 5-hydroxytryptamine (serotonin) induced contractions, uterus of female rat; experiment: inhibition of 5-hydroxytryptamine (serotonin)-induced contractions in uterus of female rat, in vitro; format: cell-based; settings: for EC50: 5-HT-induced contractions, rat treated with estradiol dipropionate 20 hours before; for times more active than the comparison compound as to the anti-5 HT activity: comparison compound methergoline
Description: (§1) These novel compounds show anti-serotonin activity both peripherally and on the central nervous system. This activity had been tested "in vitro" through the inhibition of the contractions as induced by 5-hydroxytryptamine (serotonin) (5 HT) in the uterus of a female rat, which 20 hours before the test had been treated with estradiol dipropionate (see Ersparmer, Archiv. int. Pharmacodyn. 93, 293, 1953), and "in vivo" on the clones induced by tryptamine (40 mg/kg i.v.) in the rat (S. J. Corne et al., Brit. J. Pharmacol., 20, 106, 1963).

LD50 in the mouse, iv = settings: in vivo
[2] = tested on: clones induced by tryptamine; experiment: clones induced by tryptamine in the rat, in vivo; settings: sc, read-out: Clones induced by Tryptamine ED50
Description: as §1

[3] = tested on: ileus of guinea pig (BaCl2); experiment: spasmolytic activity, ileus of guinea pig, BaCl2, in vitro; format: cell-based; settings: for EC50: Cavia porcellus, spasmolytic activity, in vitro, no quantity or unit printed in this column head; for times less active as regards the spasmolytic activity: vs comparison compound (papaverine as spasmolytic agent)
[4] = tested on: seminal vesicle of guinea pig; experiment: adrenolytic activity, seminal vesicle of guinea pig, in vitro; format: cell-based; settings: for EC50: Cavia porcellus, adrenolytic activity, in vitro; for times less active as regards the adrenolytic activity: vs comparison compound (dihydroergocristine as alpha-blocking agent)

Compound	EC50 [1]	LD50 (LD50 in the mouse, iv)	ED50 ([2]; Rattus norvegicus)	ED50 ([2]; rat, tryptamine 40 mg/kg i.v.)	EC50 [3]	EC50 [4]	times more active than the comparison compound as to the anti-5 HT activity [1]	times less active as regards the spasmolytic activity [3]	times less active as regards the adrenolytic activity [4]
CN1C[C@H](CNC(=O)OCc2ccccc2)C[C@@H]2c3cccc4c3c(cn4C)C[C@H]21 [Methergoline, methergoline, reference compound]	5 ng/mL (≈ 0.0124 µM)	21.2 mg/kg	0.062 mg/kg						
CN1C[C@H](CNS(=O)(=O)N(C)C)C[C@@H]2c3cccc4[nH]cc(c34)C[C@H]21 [Compound 2]	5 ng/mL (≈ 0.0138 µM)	22.5 mg/kg		10 mg/kg	10000 ng/mL (≈ 27.6 µM)	1500 ng/mL (≈ 4.14 µM)			
CN1C[C@H](CNS(=O)(=O)N2CCOCC2)C=C2c3cccc4[nH]cc(c34)C[C@H]21 [Compound 9, 1-(6-methyl-8β-didehydroergolenylmethyl)-3-morpholino-sulfonamide]	5 ng/mL (≈ 0.0124 µM)	34.5 mg/kg		4.25 mg/kg	15000 ng/mL (≈ 37.3 µM)	100 ng/mL (≈ 0.248 µM)			
CC(C)[C@@]1(NC(=O)[C@@H]2C[C@@H]3c4cccc5[nH]cc(c45)C[C@H]3N(C)C2)O[C@@]2(O)[C@@H]3CCCN3C(=O)[C@H](Cc3ccccc3)N2C1=O [Dihydroergocristine methansulfonate, dihydroergocristine, reference compound]		70 mg/kg				8 ng/mL			
CN1C[C@H](CNS(=O)(=O)N2CCCCCC2)C=C2c3cccc4[nH]cc(c34)C[C@H]21 [Compound 7, 1-(1H-hexahydroazepine)-3-(6-methyl-8β-didehydroergolenyl-methyl)-sulfonamide]	7 ng/mL (≈ 0.0169 µM)	50.2 mg/kg		2.47 mg/kg	5000 ng/mL (≈ 12.1 µM)	800 ng/mL (≈ 1.93 µM)			
CN1C[C@H](CNS(=O)(=O)N2CCOCC2)C[C@@H]2c3cccc4[nH]cc(c34)C[C@H]21 [Compound 10]	5 ng/mL (≈ 0.0124 µM)	51 mg/kg		7.2 mg/kg	5000 ng/mL (≈ 12.4 µM)	70 ng/mL (≈ 0.173 µM)			
COc1ccc(Cc2nccc3cc(OC)c(OC)cc23)cc1OC [Papaverin, papaverine, reference compound]		38 mg/kg			8900 ng/mL (≈ 26.2 µM)				
CN1C[C@H](CNS(=O)(=O)N2CCCCC2)C=C2c3cccc4[nH]cc(c34)C[C@H]21 [Compound 5, 1-(6-methyl-8β-didehydroergolenylmethyl)-3-piperidino-sulfonamide]	3 ng/mL (≈ 0.00749 µM)	45 mg/kg		0.51 mg/kg	7500 ng/mL (≈ 18.7 µM)	200 ng/mL (≈ 0.499 µM)			
CN1C[C@H](CNS(=O)(=O)N2CCCCC2)C=C2c3cccc4c3c(cn4C)C[C@H]21 [Compound 12, 1-(1,6-dimethyl-8β-didehydroergolenylmethyl)-3-piperidino-sulfonamide]	0.02 ng/mL (≈ 4.82e-05 µM)	20 mg/kg		0.046 mg/kg	15000 ng/mL (≈ 36.2 µM)	1000 ng/mL (≈ 2.41 µM)	250 times	2 times	25 times
CN1C[C@H](CNS(=O)(=O)N2CCCC2)C=C2c3cccc4c3c(cn4C)C[C@H]21 [Compound 11, 1-(1,6-dimethyl-8β-didehydroergolenylmethyl)-3-pyrrolidine-sulfonamide]	0.2 ng/mL (≈ 0.000499 µM)	22.3 mg/kg		0.016 mg/kg	15000 ng/mL (≈ 37.4 µM)	1000 ng/mL (≈ 2.5 µM)	25 times	2 times	25 times
